# Molecular target: TNFα (Homo sapiens (Human), UniProt P01375)
# Experiment: TNF induced HEK-Blue assay
# Assay type: cell-based
# Details: HEK-Blue-CD40L cells, TNFα 0.5 ng/ml, NF-κB-driven secreted alkaline phosphatase reporter, 18 h
# Procedure: TNF or CD40L-Induced HEK-Blue Assay
# Test compounds serially diluted in DMSO were plated in an assay plate (Labcyte, Cat. #LP-0200) at final concentrations ranging from 0.004 μM to 25 μM. TNFα (final concentration 0.5 ng/ml) or CD40L (final concentration 30 ng/ml) in assay buffer [DMEM, 4.5 g/l glucose (Gibco, Cat. 21063-029), 10% FBS (Sigma, F4135), 1% Penicillin-Streptomycin (Gibco, Cat. 15140-122), 1% Anti-Anti (Gibco, Cat. 15240-112) and 2 mM L-glutamine (Gibco, Cat. 25030-081)] was then added to the assay plate. After a 30 minute pre-incubation at 37° C. and 5% CO2, HEK-Blue-CD40L cells (InvivoGen, Cat. Code hkb-cd40) containing a NF-κB-driven secreted alkaline phosphatase reporter gene were seeded into the assay plate at a density of 20,000 cells per well. This plate was then incubated for 18 h at 37° C. and 5% CO2. Secreted alkaline phosphatase expression was measured using QUANTI-Blue (InvivoGen, Cat. Code rep-qbl) according to manufacturer's specifications and the assay plate was read on a PerkinElmer Envision at 620 nm.
# Inhibition data for the test compound over a range of concentrations was plotted as percentage inhibition of the test compound (100%=maximum inhibition). IC50 values were determined after correcting for background [(sample read−mean of low control)/(mean of high control−mean of low control)] where by the low control is DMSO without stimulation and high control is DMSO with stimulation. The IC50 is defined as the concentration of test compound which produces 50% inhibition and was quantified using the 4 parameter logistic equation to fit the data.
# Sequence of TNFα (P01375 77-233): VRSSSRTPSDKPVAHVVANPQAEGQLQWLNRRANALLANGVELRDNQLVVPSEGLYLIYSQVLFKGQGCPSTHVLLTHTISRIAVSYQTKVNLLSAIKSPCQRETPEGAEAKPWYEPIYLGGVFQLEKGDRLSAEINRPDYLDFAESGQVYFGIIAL
row,IC50,Compound
1,< 1000 nM,"Cc1ccc(OC(F)F)c(N2CCCc3nc4ccc(-c5cnc(N6CCOCC6)nc5)cn4c32)c1 [Example 19, 4-(5-(1-(2-(Difluoromethoxy)-5-methylphenyl)-1,2,3,4-tetrahydroimidazo [1,2-a:5,4-b′]dipyridin-8-yl)pyrimidin-2-yl)morpholine]"
2,1000 to 10000 nM,"COc1ccc(-c2cn3c4c(nc3cc2Cl)CCCN4c2cc(C)ccc2C)cn1 [Example 23, 7-Chloro-1-(2,5-dimethylphenyl)-8-(6-methoxypyridin-3-yl)-1,2,3,4-tetrahydroimidazo[1,2-a:5,4-b′]dipyridine]"
3,< 1000 nM,"COc1ccc(-c2ccc3nc4c(n3c2)N(c2cc(C)ccc2C)CCC4C)cn1 (stereo not shown) [Example 37, 1-(2,5-Dimethylphenyl)-8-(6-methoxypyridin-3-yl)-4-methyl-1,2,3,4-tetrahydroimidazo[1,2-a:5,4-b′]dipyridine]"
4,1000 to 10000 nM,"Cc1cc2nc3c(n2cc1-c1cnn(C)c1)N(c1ccccc1OC(F)F)CCC3 [Example 4, 1-(2-(Difluoromethoxy)phenyl)-7-methyl-8-(1-methyl-1H-pyrazol-4-yl)-1,2,3,4-tetrahydroimidazo[1,2-a:5,4-b′]dipyridine]"
5,< 1000 nM,"FC(F)Oc1ccccc1N1CCCc2nc3ccc(-c4cnc(N5CCOCC5)nc4)cn3c21 [Example 15, 4-(5-(1-(2-(Difluoromethoxy)phenyl)-1,2,3,4-tetrahydroimidazo[1,2-a:5,4-b′]dipyridin-8-yl)pyrimidin-2-yl)morpholine]"
6,< 1000 nM,"COc1ccc(-c2ccc3nc4c(n3c2)N(c2ccccc2Cl)CCC4)cn1 [Example 31, 1-(2-Chlorophenyl)-8-(6-methoxypyridin-3-yl)-1,2,3,4-tetrahydroimidazo[1,2-a:5,4-b′]dipyridine]"
7,< 1000 nM,"COc1ccc(-c2ccc3nc4c(n3c2)N(c2ccccc2OC(F)F)CCC4C)cn1 (stereo not shown) [Example 38, 1-(2-(Difluoromethoxy)phenyl)-8-(6-methoxypyridin-3-yl)-4-methyl-1,2,3,4-tetrahydroimidazo[1,2-a:5,4-b′]dipyridine]"
8,< 1000 nM,"COc1ccc(-c2ccc3nc4c(n3c2)N(c2ccccc2OC(F)(F)F)CCC4)cn1 [Example 10, 8-(6-Methoxypyridin-3-yl)-1-(2-(trifluoromethoxy)phenyl)-1,2,3,4-tetrahydroimidazo[1,2-a:5,4-b′]dipyridine]"
9,< 1000 nM,"COc1ccc(-c2ccc3nc4c(n3c2)N(c2cc(Cl)ccc2C)CCC4)cn1 [Example 32, 1-(5-Chloro-2-methylphenyl)-8-(6-methoxypyridin-3-yl)-1,2,3,4-tetrahydroimidazo[1,2-a:5,4-b′]dipyridine]"
10,< 1000 nM,"Cc1ccc(C)c(N2CCCc3nc4cc(C)c(-c5cnn(C)c5)cn4c32)c1 [Example 3, 1-(2,5-Dimethylphenyl)-7-methyl-8-(1-methyl-1H-pyrazol-4-yl)-1,2,3,4-tetrahydroimidazo[1,2-a:5,4-b′]dipyridine]"
11,1000 to 10000 nM,"COc1ccc(-c2cn3c4c(nc3cc2C)CCCN4c2cc(C)ccc2C)cn1 [Example 1, 1-(2,5-Dimethylphenyl)-8-(6-methoxypyridin-3-yl)-7-methyl-1,2,3,4-tetrahydroimidazo [1,2-a:5,4-b′]dipyridine]"
12,< 1000 nM,"Cc1ccc(C)c(N2CCCc3nc4ccc(-c5cnn(C)c5)cn4c32)c1 [Example 12, 1-(2,5-Dimethylphenyl)-8-(1-methyl-1H-pyrazol-4-yl)-1,2,3,4-tetrahydroimidazo [1,2-a:5,4-b′]dipyridine]"
13,< 1000 nM,"CC(C)(O)c1ncc(-c2ccc3nc4c(n3c2)N(c2ccccc2OC(F)F)CCC4)cn1 [Example 34, 2-(5-(1-(2-(Difluoromethoxy)phenyl)-1,2,3,4-tetrahydroimidazo[1,2-a:5,4-b′]dipyridin-8-yl)pyrimidin-2-yl)propan-2-ol]"
14,1000 to 10000 nM,"Cc1ccc(C)c(N2CCCc3nc4c(C)c(C)c(-c5cnc(N6CCOCC6)nc5)cn4c32)c1 [Example 41, 4-(5-(1-(2,5-Dimethylphenyl)-6,7-dimethyl-1,2,3,4-tetrahydroimidazo [1,2-a:5,4-b′]dipyridin-8-yl)pyrimidin-2-yl)morpholine]"
15,< 1000 nM,"COc1ccc(-c2cn3c4c(nc3cc2C)CCCN4c2ccccc2OC(F)F)cn1 [Example 2, 1-(2-(Difluoromethoxy)phenyl)-8-(6-methoxypyridin-3-yl)-7-methyl-1,2,3,4-tetrahydroimidazo[1,2-a:5,4-b′]dipyridine]"
16,< 1000 nM,"Cc1ccc(C)c(N2CCC(C)c3nc4ccc(-c5cnn(C)c5)cn4c32)c1 (stereo not shown) [Example 39, 1-(2,5-Dimethylphenyl)-4-methyl-8-(1-methyl-1H-pyrazol-4-yl)-1,2,3,4-tetrahydroimidazo[1,2-a:5,4-b′]dipyridine]"

row,IC50,Compound
1,< 1000 nM,"COc1ccc(-c2ccc3nc4c(n3c2)N(c2ccccc2OC(F)F)CCC4)cn1 [Example 6, 1-(2-(Difluoromethoxy)phenyl)-8-(6-methoxypyridin-3-yl)-1,2,3,4-tetrahydroimidazo[1,2-a:5,4-b′]dipyridine]"
2,< 1000 nM,"CCc1ccccc1N1CCCc2nc3ccc(-c4ccc(OC)nc4)cn3c21 [Example 28, 1-(2-Ethylphenyl)-8-(6-methoxypyridin-3-yl)-1,2,3,4-tetrahydroimidazo [1,2-a:5,4-b′]dipyridine]"
3,< 1000 nM,"COc1ccc(-c2ccc3nc4c(n3c2)N(c2cc(C)ccc2C)CCC4)cn1 [Example 5, 1-(2,5-Dimethylphenyl)-8-(6-methoxypyridin-3-yl)-1,2,3,4-tetrahydroimidazo [1,2-a:5,4-b′]dipyridine]"
4,< 1000 nM,"Cn1cc(-c2ccc3nc4c(n3c2)N(c2ccccc2OC(F)F)CCC4)cn1 [Example 13, 1-(2-(Difluoromethoxy)phenyl)-8-(1-methyl-1H-pyrazol-4-yl)-1,2,3,4-tetrahydroimidazo[1,2-a:5,4-b′]dipyridine]"
5,< 1000 nM,"Cc1nnc(-c2ccc(-c3ccc4nc5c(n4c3)N(c3ccccc3OC(F)F)CCC5)cc2)o1 [Example 17, 2-(4-(1-(2-(Difluoromethoxy)phenyl)-1,2,3,4-tetrahydroimidazo[1,2-a:5,4-b′]dipyridin-8-yl)phenyl)-5-methyl-1,3,4-oxadiazole]"
6,1000 to 10000 nM,"Cc1ccc(C)c(N2CCCc3nc4ccc(-c5ccc(C(C)(C)O)cc5)cn4c32)c1 [Example 36, 2-(4-(1-(2,5-Dimethylphenyl)-1,2,3,4-tetrahydroimidazo[1,2-a:5,4-b′]dipyridin-8-yl)phenyl)propan-2-ol]"
7,< 1000 nM,"CC1CCN(c2ccccc2OC(F)F)c2c1nc1ccc(-c3cnn(C)c3)cn21 (stereo not shown) [Example 40, 1-(2-(Difluoromethoxy)phenyl)-4-methyl-8-(1-methyl-1H-pyrazol-4-yl)-1,2,3,4-tetrahydroimidazo[1,2-a:5,4-b′]dipyridine]"
8,< 1000 nM,"COc1ccc(-c2ccc3nc4c(n3c2)N(c2cc(C)ccc2OC)CCC4)cn1 [Example 7, 1-(2-Methoxy-5-methylphenyl)-8-(6-methoxypyridin-3-yl)-1,2,3,4-tetrahydroimidazo [1,2-a:5,4-b′]dipyridine]"
9,1000 to 10000 nM,"COc1ccc(-c2cn3c4c(nc3cc2Cl)CCCN4c2ccccc2OC(F)F)cn1 [Example 22, 7-Chloro-1-(2-(difluoromethoxy)phenyl)-8-(6-methoxypyridin-3-yl)-1,2,3,4-tetrahydroimidazo[1,2-a:5,4-b′]dipyridine]"
10,< 1000 nM,"COc1ccc(-c2ccc3nc4c(n3c2)N(c2cc(F)ccc2C)CCC4)cn1 [Example 25, 1-(5-Fluoro-2-methylphenyl)-8-(6-methoxypyridin-3-yl)-1,2,3,4-tetrahydroimidazo [1,2-a:5,4-b′]dipyridine]"
11,1000 to 10000 nM,"COc1ccc(-c2ccc3nc4c(n3c2)N(c2nccc3ccccc23)CCC4)cn1 [Example 8, 1-(Isoquinolin-1-yl)-8-(6-methoxypyridin-3-yl)-1,2,3,4-tetrahydroimidazo [1,2-a:5,4-b′]dipyridine]"
12,< 1000 nM,"COc1ccc(-c2ccc3nc4c(n3c2)N(c2ccc(F)cc2C)CCC4)cn1 [Example 26, 1-(4-Fluoro-2-methylphenyl)-8-(6-methoxypyridin-3-yl)-1,2,3,4-tetrahydroimidazo [1,2-a:5,4-b′]dipyridine]"
13,< 1000 nM,"Cc1ccc(C)c(N2CCCc3nc4ccc(-c5ccc(-c6nnc(C)o6)cc5)cn4c32)c1 [Example 16, 2-(4-(1-(2,5-Dimethylphenyl)-1,2,3,4-tetrahydroimidazo[1,2-a:5,4-b′]dipyridin-8-yl)phenyl)-5-methyl-1,3,4-oxadiazole]"
14,1000 to 10000 nM,"COc1ccc(-c2ccc3nc4c(n3c2)N(c2cccc(C)c2C)CCC4)cn1 [Example 24, 1-(2,3-Dimethylphenyl)-8-(6-methoxypyridin-3-yl)-1,2,3,4-tetrahydroimidazo [1,2-a:5,4-b′]dipyridine]"
15,< 1000 nM,"Cc1ccc(C)c(N2CCCc3nc4ccc(-c5cnc(N6CCOCC6)nc5)cn4c32)c1 [Example 14, 4-(5-(1-(2,5-Dimethylphenyl)-1,2,3,4-tetrahydroimidazo[1,2-a:5,4-b′]dipyridin-8-yl)pyrimidin-2-yl)morpholine]"

# Source: patent US10112944B2, “Heterocyclic compounds useful as inhibitors of TNF” (BRISTOL-MYERS SQUIBB COMPANY, priority 2015, dated 2018)
